# In US9732087B2, “Diamino-pyridine, pyrimidine, and pyridazine modulators of the histamine H4 receptor” (JANSSEN PHARMACEUTICA NV, priority 2008, dated 2017):
# Molecular target: human H4 receptor (Homo sapiens (Human), UniProt Q9H3N8)
# Experiment: Binding assay on recombinant human histamine H4 receptor ([3H]histamine competition, SK-N-MC cell membranes)
# Conditions: membranes harvested with cell harvester; [3H]histamine 10 nM; average of results; read-out: Cell Harvester Ki
# Method in brief: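 Scintillation counting of filter-bound [3H]histamine after rapid harvesting on 0.5% PEI-treated GF/C filters with ice-cold Tris/EDTA washes. Receptor source: 30,000 g membrane pellets of SK-N-MC cells stably or transiently expressing human H4. Values shown as '>' are the top concentration tested.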
row,SMILES,Ki [µM]
1,"CN(CCN)c1cnnc(NCC2CCCC2)c1 [Example 303, N^5-(2-Aminoethyl)-N^3-(cyclopentylmethyl)-N^5-methylpyridazine-3,5-diamine]",0.417
2,"OCCCNc1cc(N2C[C@H]3CCN[C@H]3C2)cnn1 [Example 305, 3-({5-[(3aR,6aR)-Hexahydropyrrolo[3,4-b]pyrrol-5(1H)-yl]pyridazin-3-yl}amino)propan-1-ol]",1.06
3,"CC(C)(C)CNc1cc(N2CCCNCC2)cnn1 [Example 307, 5-(1,4-Diazepan-1-y1)-N-(2,2-dimethylpropyl)pyridazin-3-amine]",0.536
4,"c1nnc(NC2CC2)cc1N1C[C@H]2CCN[C@H]2C1 [Example 309, N-Cyclopropyl-5-[(3aR,6aR)-hexahydropyrrolo[3,4-b]pyrrol-5(1H)-yl]pyridazin-3-amine]",1.6
5,"CCCCNc1cc(N2C[C@H]3CCN[C@H]3C2)cnn1 [Example 310, N-Butyl-5-[(3aR,6aR)-hexahydropyrrolo[3,4-b]pyrrol-5(1H)-yl]pyridazin-3-amine]",0.621
6,"c1cc(N2CCNCC2)cc(NCC2CCCC2)n1 [Example 311, N-(Cyclopentylmethyl)-4-piperazin-1-ylpyridin-2-amine]",0.226
7,"N[C@@H]1CCN(c2cnnc(NCC3CC4CCC3C4)c2)C1 (stereo partly drawn) [Example 312, 5-[(3R)-3-Aminopyrrolidin-1-yl]-N-(bicyclo[2.2.1]hept-2-ylmethyl)pyridazin-3-amine]",0.547
8,"OCCCNc1cc(N2CCNCC2)cnn1 [Example 314, 3-[(5-Piperazin-1-ylpyridazin-3-yl)amino]propan-1-ol]",> 10
9,"c1nnc(NC2CC2)cc1N1CCNCC1 [Example 315, N-Cyclopropyl-5-piperazin-1-ylpyridazin-3-amine]",1.92
10,"c1nnc(NCC2CCCC2)cc1N1CCCNCC1 [Example 316, N-(Cyclopentylmethyl)-5-(1,4-diazepan-1-yl)pyridazin-3-amine]",0.275
11,"CC(C)CNc1cc(N2C[C@H]3CCN[C@H]3C2)cnn1 [Example 318, 5-[(3aR,6aR)-Hexahydropyrrolo[3,4-b]pyrrol-5(1H)-yl]-N-(2-methylpropyl)pyridazin-3-amine]",1.24
12,"CNC1CN(c2cnnc(NCC(C)C)c2)C1 [Example 319, 5-[3-(Methylamino)azetidin-1-yl]-N-(2-methylpropyl)pyridazin-3-amine]",0.478
13,"CNC1CN(c2cnnc(NCCOC)c2)C1 [Example 320, N-(2-Methoxyethyl)-5-[3-(methylamino)azetidin-1-yl]pyridazin-3-amine]",4.31
14,"NC1CN(c2cnnc(NC3CC4CCC3C4)c2)C1 (stereo not shown) [Example 322, 5-(3-Aminoazetidin-1-yl)-N-bicyclo[2.2.1]hept-2-ylpyridazin-3-amine]",0.0881
15,"CNC1CN(c2cnnc(NCC(C)(C)C)c2)C1 [Example 324, N-(2,2-Dimethylpropyl)-5-[3-(methylamino)azetidin-1-yl]pyridazin-3-amine]",0.899
16,"CNC1CN(c2cnnc(NC3CCCCC3)c2)C1 [Example 325, N-Cyclohexyl-5-[3-(methylamino)azetidin-1-yl]pyridazin-3-amine]",0.798
17,"NC1CN(c2cnnc(NC3CCCC3)c2)C1 [Example 326, 5-(3-Aminoazetidin-1-yl)-N-cyclopentylpyridazin-3-amine]",2.74
18,"N[C@H]1CCN(c2cnnc(NC3CC3)c2)C1 [Example 336, 5-[(3S)-3-Aminopyrrolidin-1-yl]-N-cyclopropylpyridazin-3-amine]",> 10
19,"N[C@@H]1CCN(c2cnnc(NCc3ccc(F)cc3)c2)C1 [Example 342, 5-[(3R)-3-Aminopyrrolidin-1-yl]-N-(4-fluorobenzyl)pyridazin-3-amine]",0.936
20,"c1nnc(NC2CCCC2)cc1N1C[C@H]2CCN[C@H]2C1 [Example 345, N-Cyclopentyl-5-[(3aR,6aR)-hexahydropyrrolo[3,4-b]pyrrol-5(1H)-yl]pyridazin-3-amine]",1.32
21,"CC(C)(CO)CNc1cc(N2CC[C@@H](N)C2)cnn1 [Example 350, 3-({5-[(3R)-3-Aminopyrrolidin-1-yl]pyridazin-3-yl}amino)-2,2-dimethylpropan-1-ol]",1.72
22,"CNC1CN(c2cnnc(NCc3ccccn3)c2)C1 [Example 352, 5-[3-(Methylamino)azetidin-1-yl]-N-(pyridin-2-ylmethyl)pyridazin-3-amine]",> 10
23,"CC(C)CNc1cc(N2CC[C@@H](N)C2)cnn1 [Example 353, 5-[(3R)-3-Aminopyrrolidin-1-yl]-N-(2-methylpropyl)pyridazin-3-amine]",0.106
24,"c1nnc(NC2CCCC2)cc1N1CCNCC1 [Example 354, N-Cyclopentyl-5-piperazin-1-ylpyridazin-3-amine]",2.13
25,"CCCCNc1cc(N2CCNCC2)cnn1 [Example 356, N-Butyl-5-piperazin-1-ylpyridazin-3-amine]",1.6
26,"CC(C)(C)CNc1cc(N2CCNCC2)cnn1 [Example 357, N-(2,2-Dimethylpropyl)-5-piperazin-1-ylpyridazin-3-amine]",4.37

# Second part, the compound after the results:
row,Ki [µM],SMILES
1,7.22,"CC1(C)[C@H]2CC[C@H](CNc3cc(N4CC(N)C4)cnn3)[C@@H]1C2 [Example 306, 5-(3-Aminoazetidin-1-yl)-N-{[(1S,2S,5S)-6,6-dimethylbicyclo[3.1.1]hept-2-yl]methyl}pyridazin-3-amine]"
2,> 10,"N[C@@H]1CCN(c2cnnc(NCCCO)c2)C1 [Example 313, 3-({5-[(3R)-3-Aminopyrrolidin-1-yl]pyridazin-3-yl}amino)propan-1-ol]"
3,0.93,"N[C@H]1CCN(c2cnnc(NCC3CCCC3)c2)C1 [Example 317, 5-[(3S)-3-Aminopyrrolidin-1-yl]-N-(cyclopentylmethyl)pyridazin-3-amine]"
4,0.626,"C[C@@H](Nc1cc(N2CC[C@@H](N)C2)cnn1)c1ccccc1 [Example 321, 5-[(3R)-3-Aminopyrrolidin-1-yl]-N-[(1R)-1-phenylethyl]pyridazin-3-amine]"
5,> 10,"CC(C)(C)CNc1cc(N2CC(N)C2)cnn1 [Example 323, 5-(3-Aminoazetidin-1-yl)-N-(2,2-dimethylpropyl)pyridazin-3-amine]"
6,0.0953,"CNC1CN(c2cnnc(NCC3CC3)c2)C1 [Example 327, N-(Cyclopropylmethyl)-5-[3-(methylamino)azetidin-1-yl]pyridazin-3-amine]"
7,1.68,"CC(C)CNc1cc(N2CC(N)C2)cnn1 [Example 328, 5-(3-Aminoazetidin-1-yl)-N-(2-methylpropyl)pyridazin-3-amine]"
8,> 10,"NC1CN(c2cnnc(NCc3ccccc3)c2)C1 [Example 329, 5-(3-Aminoazetidin-1-yl)-N-benzylpyridazin-3-amine]"
9,2.59,"CNC1CN(c2cnnc(NCc3ccccc3)c2)C1 [Example 330, N-Benzyl-5-[3-(methylamino)azetidin-1-yl]pyridazin-3-amine]"
10,1.66,"CNC1CN(c2cnnc(NC3CCCC3)c2)C1 [Example 332, N-Cyclopentyl-5-[3-(methylamino)azetidin-1-yl]pyridazin-3-amine]"
11,> 10,"NC1CN(c2cnnc(NC3CC3)c2)C1 [Example 333, 5-(3-Aminoazetidin-1-yl)-N-cyclopropylpyridazin-3-amine]"
12,2.57,"CNC1CN(c2cnnc(NCCCO)c2)C1 [Example 334, 3-({5-[3-(Methylamino)azetidin-1-yl]pyridazin-3-yl}amino)propan-1-ol]"
13,> 10,"COCCNc1cc(N2CC(N)C2)cnn1 [Example 335, 5-(3-Aminoazetidin-1-yl)-N-(2-methoxyethyl)pyridazin-3-amine]"
14,> 10,"N[C@@H]1CCN(c2cnnc(NCc3ccccn3)c2)C1 [Example 337, 5-[(3R)-3-Aminopyrrolidin-1-yl]-N-(pyridin-2-ylmethyl)pyridazin-3-amine]"
15,0.22,"CC(C)CNc1cc(N2CC[C@H](N)C2)cnn1 [Example 339, 5-[(3S)-3-Aminopyrrolidin-1-yl]-N-(2-methylpropyl)pyridazin-3-amine]"
16,2.03,"N[C@@H]1CCN(c2cnnc(NCc3ccccc3)c2)C1 [Example 340, 5-[(3R)-3-Aminopyrrolidin-1-yl]-N-benzylpyridazin-3-amine]"
17,> 10,"COc1ccc(CNc2cc(N3CC[C@@H](N)C3)cnn2)cc1 [Example 341, 5-[(3R)-3-Aminopyrrolidin-1-yl]-N-(4-methoxybenzyl)pyridazin-3-amine]"
18,> 10,"Cc1ccc(CNc2cc(N3CC[C@@H](N)C3)cnn2)cc1 [Example 343, 5-[(3R)-3-Aminopyrrolidin-1-yl]-N-(4-methylbenzyl)pyridazin-3-amine]"
19,> 10,"Cc1ccc(CNc2cc(N3CCNCC3)cnn2)cc1 [Example 344, N-(4-Methylbenzyl)-5-piperazin-1-ylpyridazin-3-amine]"
20,> 10,"Fc1ccc(CNc2cc(N3CCNCC3)cnn2)cc1 [Example 346, N-(4-Fluorobenzyl)-5-piperazin-1-ylpyridazin-3-amine]"
21,> 10,"COc1ccc(CNc2cc(N3CCNCC3)cnn2)cc1 [Example 347, N-(4-Methoxybenzyl)-5-piperazin-1-ylpyridazin-3-amine]"
22,> 10,"c1ccc(CNc2cc(N3CCNCC3)cnn2)cc1 [Example 348, N-Benzyl-5-piperazin-1-ylpyridazin-3-amine]"
23,> 10,"C[C@@H](Nc1cc(N2CCNCC2)cnn1)c1ccccc1 [Example 349, N-[(1R)-1-Phenylethyl]-5-piperazin-1-ylpyridazin-3-amine]"
24,0.206,"CNC1CN(c2cnnc(NC3CC3)c2)C1 [Example 351, N-Cyclopropyl-5-[3-(methylamino)azetidin-1-yl]pyridazin-3-amine]"
25,2.9,"c1nnc(NC2CCCCC2)cc1N1CCNCC1 [Example 355, N-Cyclohexyl-5-piperazin-1-ylpyridazin-3-amine]"
26,> 10,"NC1CN(c2cnnc(NCC3CCCC3)c2)C1 [Example 358, 5-(3-Aminoazetidin-1yl)-N-(cyclopentylmethyl)pyridazin-3-amine]"
